From patent US9096832B2, “Differentiation of human embryonic stem cells” (LifeScan, Inc., priority 2007, dated 2015)

Test system: H9 embryonic stem cells
Test: Microarray analysis of definitive endoderm stage cells on […] or MEFs +/- Wnt-3a (Table VI)
Format: cell-based, human
Conditions: low serum, on MEFS
Experimental: Controls for each group included cells plated on [sequence]—coated dishes and cultured in MEF-conditioned medium or cells plated on MEFs and cultured in ES medium. All groups contained three biological replicates and each biological replicate was repeated on two separate gene chips.
Sample preparation, hybridization, and image analysis were performed according to the Affymetrix Human Genome U133 Plus 2.0 Array. Following normalization and a log transformation, data analysis was performed using OmniViz® software (MA) and [sequence] […] Significant differences in gene expression between the samples were evaluated using analysis of variance and an F-test with adjusted P-value (Benjamini and Hochberg correction) of less-than or equal to 0.05. Only genes with a present call in at least one group were included in the analysis.

**Q.** With “Activin A: activin A (a member of the TGFβ superfamily), R&D Systems; 'w/o wnt' in Table VII = 100 ng/ml Activin A without Wnt3a” as the substance, how does the “Intensity (log): Homo sapiens haptoglobin-related protein (HPR), mRNA” value read?
**A.** −1.196

**Q.** And the “Intensity (log): Homo sapiens homeobox protein goosecoid mRNA, complete cds” value?
**A.** 1.894

**Q.** And the “Intensity (log): Homo sapiens hypothetical protein FLJ10718 (FLJ10718), mRNA” value?
**A.** 5.552

**Q.** And the “Intensity (log): Homo sapiens hypothetical protein FLJ10970 (FLJ10970), mRNA” value?
**A.** 3.02

**Q.** What about the “Intensity (log): Homo sapiens hypothetical protein FLJ11316 (FLJ11316), mRNA” value of the same substance?
**A.** 0.7553

**Q.** What about the “Intensity (log): Homo sapiens hypothetical protein FLJ22252 similar to SRY-box containing gene 17 (FLJ22252), mRNA” value of the same substance?
**A.** 4.5979

**Q.** What about the “Intensity (log): Homo sapiens lumican (LUM), mRNA” value of the same substance?
**A.** 0.9488

**Q.** And the “Intensity (log): Homo sapiens mRNA for GATA-6, complete cds” value?
**A.** 5.343

**Q.** And the “Intensity (log): Homo sapiens mRNA for KIAA1409 protein, partial cds” value?
**A.** −1.032

**Q.** What about the “Intensity (log): Homo sapiens mRNA; cDNA DKFZp434D0818 (from clone DKFZp434D0818)” value of the same substance?
**A.** −0.3056

**Q.** And the “Intensity (log): Homo sapiens mRNA; cDNA DKFZp586J0624 (from clone DKFZp586J0624); complete cds” value?
**A.** 3.699

**Q.** What about the “Intensity (log): Homo sapiens presenilin stabilization factor b (PSF) mRNA, complete cds; alternatively spliced” value of the same substance?
**A.** 0.5675

**Q.** And the “Intensity (log): Homo sapiens reserved (KCNK12), mRNA” value?
**A.** 3.78

**Q.** What about the “Intensity (log): Homo sapiens retinoid X receptor, gamma (RXRG), mRNA” value of the same substance?
**A.** −0.3204

**Q.** What about the “Intensity (log): Homo sapiens sema domain, immunoglobulin domain (Ig), short basic domain, secreted, (semaphorin) 3E (SEMA3E), mRNA” value of the same substance?
**A.** 1.276

**Q.** What about the “Intensity (log): Homo sapiens sema domain, seven thrombospondin repeats (type 1 and type 1-like), transmembrane domain (TM) and short cytoplasmic domain, (semaphorin) 5A (SEMA5A), mRNA” value of the same substance?
**A.** 1.487

**Q.** And the “Intensity (log): Homo sapiens solute carrier family 21 (prostaglandin transporter), member 2 (SLC21A2), mRNA” value?
**A.** 2.433

**Q.** What about the “Intensity (log): Homo sapiens type VI collagen alpha 2 chain precursor (COL6A2) mRNA, complete cds, alternatively spliced” value of the same substance?
**A.** 2.845

**Q.** What about the “Intensity (log): Homo sapiens, alpha-1 (VI) collagen” value of the same substance?
**A.** −2.269

**Q.** What about the “Intensity (log): Homo sapiens, clone MGC: 4655, mRNA, complete cds” value of the same substance?
**A.** 2.476

**Q.** What about the “Intensity (log): Human (clone 8B1) Br-cadherin mRNA, complete cds” value of the same substance?
**A.** −1.026

**Q.** And the “Intensity (log): Human (clone HSY3RR) neuropeptide Y receptor (NPYR) mRNA, complete cds” value?
**A.** 5.48

**Q.** And the “Intensity (log): Human DNA sequence from clone RP1-181C24 on chromosome 6p11.1-12.2. Contains the 3 end of the BMP5 gene for bone morphogenetic protein 5, ESTs, STSs and GSSs” value?
**A.** −0.3731

**Q.** And the “Intensity (log): Human Fritz mRNA, complete cds” value?
**A.** 3.915

**Q.** What about the “Intensity (log): Human dipeptidyl peptidase IV (CD26) mRNA, complete cds” value of the same substance?
**A.** −1.256

**Q.** And the “Intensity (log): Human glycophorin HeP2 mRNA, partial cds” value?
**A.** 0.2335

**Q.** What about the “Intensity (log): Human link protein mRNA, complete cds” value of the same substance?
**A.** −1.263

**Q.** What about the “Intensity (log): Human mRNA for alpha-1 type II collagen” value of the same substance?
**A.** −0.3802

**Q.** And the “Intensity (log): Human mRNA for apolipoprotein AI (apo AI)” value?
**A.** 2.497

**Q.** What about the “Intensity (log): Human prostatic secretory protein 57 mRNA, complete cds” value of the same substance?
**A.** −0.4077

**Q.** What about the “Intensity (log): KIAA1462 protein” value of the same substance?
**A.** 0.4371

**Q.** What about the “Intensity (log): MCP-1 = monocyte chemotactic protein (human, aortic endothelial cells, mRNA, 661 nt)” value of the same substance?
**A.** 2.955

**Q.** And the “Intensity (log): Rho GDP dissociation inhibitor (GDI) alpha” value?
**A.** −2.582

**Q.** And the “Intensity (log): WAS protein family, member 2” value?
**A.** −1.06

**Q.** What about the “Intensity (log): collagen, type IX, alpha 2” value of the same substance?
**A.** 2.935

**Q.** What about the “Intensity (log): collagen, type VI, alpha 1” value of the same substance?
**A.** 0.6042

**Q.** And the “Intensity (log): hepatocyte nuclear factor 4, alpha” value?
**A.** 0.4452

**Q.** What about the “Intensity (log): homeo box HB9” value of the same substance?
**A.** 1.631

**Q.** And the “Intensity (log): hypothetical protein FLJ21032” value?
**A.** 2.618

**Q.** What about the “Intensity (log): hypothetical protein FLJ23091” value of the same substance?
**A.** 3.78

**Q.** What about the “Intensity (log): microfibrillar-associated protein 4” value of the same substance?
**A.** −0.6009

**Q.** And the “Intensity (log): myristoylated alanine-rich protein kinase C substrate (MARCKS, 80K-L)” value?
**A.** 0.3357

**Q.** What about the “Intensity (log): neuropilin 1” value of the same substance?
**A.** −1.9667

**Q.** And the “Intensity (log): noggin” value?
**A.** 1.33

**Q.** And the “Intensity (log): splicing factor, arginine serine-rich 5” value?
**A.** 4.272

**Q.** And the “Intensity (log): stanniocalcin 1” value?
**A.** 6.143

**Q.** And the “Intensity (log): ESTs” value (r13)?
**A.** −4.27

**Q.** What about the “Intensity (log): ESTs” value (r16) of the same substance?
**A.** −2.6475

**Q.** And the “Intensity (log): solute carrier family 16 (monocarboxylic acid transporters), member 3” value (r20)?
**A.** 0.279

**Q.** What about the “Intensity (log): Homo sapiens solute carrier family 16 (monocarboxylic acid transporters), member 3 (SLC16A3), mRNA” value (r30) of the same substance?
**A.** 1.724

**Q.** And the “Intensity (log): ESTs” value (r49)?
**A.** 0.967

**Q.** What about the “Intensity (log): glycophorin B (includes Ss blood group)” value (r50) of the same substance?
**A.** −0.1297

**Q.** And the “Intensity (log): ESTs” value (r62)?
**A.** −0.2374

**Q.** And the “Intensity (log): Homo sapiens HNF-3beta mRNA for hepatocyte nuclear factor-3 beta, complete cds” value (r66)?
**A.** 2.825

**Q.** What about the “Intensity (log): ESTs” value (r81) of the same substance?
**A.** −2.321

**Q.** What about the “Intensity (log): ESTs” value (r92) of the same substance?
**A.** 0.926

**Q.** What about the “Intensity (log): ESTs” value (r98) of the same substance?
**A.** −2.206

**Q.** What about the “Intensity (log): ESTs” value (r108) of the same substance?
**A.** −1.825

**Q.** And the “Intensity (log): Homo sapiens phorbolin-like protein MDS019 (MDS019), mRNA” value (r121)?
**A.** 2.408

**Q.** And the “Intensity (log): ESTs” value (r129)?
**A.** 0.4204

**Q.** What about the “Intensity (log): ESTs” value (r136) of the same substance?
**A.** 3.522

**Q.** And the “Intensity (log): ESTs” value (r137)?
**A.** 0.761

**Q.** And the “Intensity (log): ESTs” value (r142)?
**A.** 1.433

**Q.** What about the “Intensity (log): ESTs” value (r145) of the same substance?
**A.** 1.0501

**Q.** What about the “Intensity (log): Cluster Incl. AB028021: Homo sapiens HNF-3beta mRNA for hepatocyte nuclear factor-3 beta, complete cds” value (r165) of the same substance?
**A.** 4.117

**Q.** And the “Intensity (log): hypothetical protein FLJ23403” value (r205)?
**A.** −2.313

**Q.** And the “Intensity (log): matrix metalloproteinase 14 (membrane-inserted)” value (r215)?
**A.** −0.5185

**Q.** What about the “Intensity (log): Homo sapiens glycophorin B (includes Ss blood group) (GYPB), mRNA” value (r218) of the same substance?
**A.** 0.1803

**Q.** What about the “Intensity (log): ESTs” value (r234) of the same substance?
**A.** 3.913

**Q.** And the “Intensity (log): ESTs” value (r240)?
**A.** 3.125

**Q.** What about the “Intensity (log): ESTs” value (r241) of the same substance?
**A.** −0.5703

**Q.** What about the “Intensity (log): KIAA0878 protein” value (r250) of the same substance?
**A.** 4.789

**Q.** What about the “Intensity (log): ESTs” value (r260) of the same substance?
**A.** 4.814

**Q.** And the “Intensity (log): Homo sapiens matrix metalloproteinase 14 (membrane-inserted) (MMP14), mRNA” value (r270)?
**A.** −0.09689

**Q.** And the “Intensity (log): ESTs” value (r278)?
**A.** 0.6202

**Q.** And the “Intensity (log): ESTs” value (r290)?
**A.** 2.657

**Q.** And the “Intensity (log): ESTs” value (r301)?
**A.** 3.372

**Q.** And the “Intensity (log): ESTs” value (r314)?
**A.** −0.2982

**Q.** What about the “Intensity (log): Homo sapiens hypothetical protein FLJ23403 (FLJ23403), mRNA” value (r315) of the same substance?
**A.** −1.004

**Q.** And the “Intensity (log): ESTs” value (r319)?
**A.** −0.1895

**Q.** And the “Intensity (log): Homo sapiens KIAA0878 protein (KIAA0878), mRNA” value (r332)?
**A.** 5.654

**Q.** And the “Intensity (log): phorbolin-like protein MDS019” value (r340)?
**A.** 0.5035

**Q.** What about the “Intensity (log): ESTs” value (r347) of the same substance?
**A.** 3.749

**Q.** And the “Intensity (log): ESTs” value (r376)?
**A.** 0.8249

**Q.** And the “Intensity (log): ESTs” value (r377)?
**A.** −1.364
